The assay addresses T1, WT-CFTR channels (Homo sapiens, UniProt P13569).
T1 construct: expressed in transfected cells
The assay can be described thus: IonWorks Quattro CFTR inhibitor assay (whole-cell planar patch clamp). The class given is cell-based. As to conditions: inward current (−100 mV); CHO cells stably expressing WT-CFTR; CFTR activated by 10 μM forskolin; 10 min compound incubation. (The patch-clamp technique gives a direct electrical read-out from membranes.)

IC50 data for 1 compound are collected here from US9359381B2, “Tricyclic compounds for inhibiting the CFTR channel” (Novartis AG, priority 2012, dated 2016).

T1 sequence (P13569 whole entry): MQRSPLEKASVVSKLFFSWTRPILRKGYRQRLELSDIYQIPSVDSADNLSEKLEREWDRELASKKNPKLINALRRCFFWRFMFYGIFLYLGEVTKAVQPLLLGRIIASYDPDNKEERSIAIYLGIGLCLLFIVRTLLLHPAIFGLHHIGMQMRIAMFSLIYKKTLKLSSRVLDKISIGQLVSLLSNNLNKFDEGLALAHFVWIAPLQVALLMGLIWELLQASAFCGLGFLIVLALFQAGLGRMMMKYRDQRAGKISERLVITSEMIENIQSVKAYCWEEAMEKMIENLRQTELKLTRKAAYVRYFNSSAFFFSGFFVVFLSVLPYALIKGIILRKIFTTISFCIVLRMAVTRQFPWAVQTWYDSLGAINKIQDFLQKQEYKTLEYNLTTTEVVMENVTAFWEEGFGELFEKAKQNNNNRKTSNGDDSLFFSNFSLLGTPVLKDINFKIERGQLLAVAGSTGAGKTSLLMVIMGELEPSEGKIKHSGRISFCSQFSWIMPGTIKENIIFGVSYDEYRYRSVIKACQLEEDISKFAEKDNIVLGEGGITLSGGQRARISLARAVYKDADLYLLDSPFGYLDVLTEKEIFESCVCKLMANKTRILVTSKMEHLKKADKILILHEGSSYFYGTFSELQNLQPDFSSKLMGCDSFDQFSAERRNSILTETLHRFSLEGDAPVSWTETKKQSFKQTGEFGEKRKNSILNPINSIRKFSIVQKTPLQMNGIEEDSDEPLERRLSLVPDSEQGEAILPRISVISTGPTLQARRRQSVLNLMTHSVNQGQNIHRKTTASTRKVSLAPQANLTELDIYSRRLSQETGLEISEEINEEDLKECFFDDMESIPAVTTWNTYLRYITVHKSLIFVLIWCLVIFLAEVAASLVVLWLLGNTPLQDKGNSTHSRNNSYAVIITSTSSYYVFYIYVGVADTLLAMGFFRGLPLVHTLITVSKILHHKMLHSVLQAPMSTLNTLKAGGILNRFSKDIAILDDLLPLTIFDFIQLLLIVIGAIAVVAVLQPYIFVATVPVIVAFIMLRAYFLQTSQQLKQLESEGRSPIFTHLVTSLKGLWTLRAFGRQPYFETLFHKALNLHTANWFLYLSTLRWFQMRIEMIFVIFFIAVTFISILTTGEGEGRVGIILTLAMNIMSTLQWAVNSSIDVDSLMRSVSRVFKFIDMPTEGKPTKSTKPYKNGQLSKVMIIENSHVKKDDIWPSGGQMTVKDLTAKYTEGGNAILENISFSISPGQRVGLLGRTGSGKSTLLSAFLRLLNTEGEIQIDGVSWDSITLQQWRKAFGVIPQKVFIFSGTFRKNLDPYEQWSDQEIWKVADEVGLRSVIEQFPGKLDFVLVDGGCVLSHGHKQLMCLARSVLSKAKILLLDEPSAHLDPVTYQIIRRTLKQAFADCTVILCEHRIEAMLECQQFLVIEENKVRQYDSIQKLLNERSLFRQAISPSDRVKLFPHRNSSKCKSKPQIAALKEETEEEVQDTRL
Method: This assay directly measures the currents associated with chloride flow through CFTR channels whilst either maintaining or adjusting the transmembrane voltage.
Chinese hamster ovary (CHO) cells stably expressing WT-CFTR channels were used for the IonWorks Quattro experiments. Cells were maintained at 37° C. in 5% v/v CO2 at 100% humidity in MEM alpha medium supplemented with 10% (v/v) FCS, 100 U/mL Penicillin/Streptomycin, and 100 μg/L methotrexate. For experiments, cells were grown in 225 cm^2 tissue culture flasks until almost confluent. Cells were removed from the flask using trypsin-EDTA and resuspended in extracellular recording solution for immediate experimentation.
Cells, at a density of 1.5-2 million per mL, were placed on the Quattro system, added to the planar patch plate and seals allowed to establish for 5-10 mins. […] CFTR was activated by the addition of 10 μM forskolin to each of the 384 wells of the patch plate. […] Test compounds, diluted from 10 mM stocks in DMSO in extracellular solution were then added to the patch plate and were incubated for a further 10 min. […] This was determined at both −100 mV and +100 mV which represents the inward and outward current respectively.

In general, IC50 refers to the concentration at which inhibition is half-maximal. As for `Cc1csc(-c2c3c(=O)n(C)c(=O)n(C)c3c3n2CCC[C@H]3c2nc(Cl)cs2)n1` (single isomer, unassigned) [Example 13.2a, 10-(4-chlorothiazol-2-yl)-1,3-dimethyl-5-(4-methylthiazol-2-yl)-7,8,9,10-tetrahydropyrimido[4,5-a]indolizine-2,4(1H,3H)-dione], the concentration for half-maximal inhibition (IC50) was 0.05 µM.
